According to US10988459B2 (priority 2015, dated 2021):

target: human RIP1 kinase domain (2-375) (Homo sapiens (Human), UniProt Q13546); test: biochemical; assay type: biochemical; details: Table 5; apparent Ki (Morrison tight-binding fit); 50 nM RIP1 kinase domain, 50 uM ATP, 2 hours incubation; read-out: Ki
Summary of the method: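 50 nM purified kinase domain from baculovirus-infected insect cells, incubated 2 h with compound in 50 mM Hepes pH 7.5, 30 mM MgCl2, 1 mM DTT, 50 uM ATP, 0.002% Brij-35, 0.5% DMSO. ADP formation read by Transcreener FP at 633 nm excitation. Ki^app fitted with the Morrison tight-binding equation.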

human RIP1 kinase domain (2-375), sequence (Q13546 2-375): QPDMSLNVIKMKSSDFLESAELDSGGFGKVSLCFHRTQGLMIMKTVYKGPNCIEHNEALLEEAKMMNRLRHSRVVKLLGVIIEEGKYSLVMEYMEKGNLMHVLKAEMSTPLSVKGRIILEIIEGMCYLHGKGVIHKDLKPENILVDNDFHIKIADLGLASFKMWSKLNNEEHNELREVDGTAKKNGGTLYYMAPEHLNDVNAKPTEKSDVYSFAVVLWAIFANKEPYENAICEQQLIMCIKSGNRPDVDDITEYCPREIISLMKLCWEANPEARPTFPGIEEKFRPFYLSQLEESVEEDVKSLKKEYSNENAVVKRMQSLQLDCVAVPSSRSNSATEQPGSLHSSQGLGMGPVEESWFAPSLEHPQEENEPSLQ

| Structure (SMILES) | Ki |
| --- | --- |
| COC1CN(CCc2cc3n(n2)CC[C@H](NC(=O)c2ncn(Cc4ccccc4)n2)C(=O)N3C)C1 [Example 757] | 168 nM |

same assay, conditions: human RIP1 kinase domain (2-375), 50 uM ATP, 2 hours incubation, Transcreener ADP assay; read-out: RIP1 Ki

| Structure (SMILES) | Ki |
| --- | --- |
| CC1CCn2nnc(C(=O)N[C@H]3COc4ccccc4N(C)C3=O)c2C1 (stereo partly drawn) [Example 187, 5-methyl-N—((S)-5-methyl-4-oxo-2,3,4,5-tetrahydrobenzo[b][1,4]oxazepin-3-yl)-4,5,6,7-tetrahydro-[1,2,3]triazolo[1,5-a]pyridine-3-carboxamide] | 210 nM |
| CN1C(=O)C(NC(=O)c2n[nH]c3c2C[C@@H](C(F)(F)F)CC3)CCn2nc3c(c21)CCCC3 (stereo partly drawn) [Example 137, (5S)—N-(1-methyl-2-oxo-2,3,4,5,8,9,10,11-octahydro-1H-[1,3]diazepino[1,2-b]indazol-3-yl)-5-(trifluoromethyl)-4,5,6,7-tetrahydro-1H-indazole-3-carboxamide] | 1800 nM |
| CN1C(=O)[C@@H](NC(=O)c2ncn(CC3CCCC3)n2)CCn2nc(C3CC3)cc21 [Example 160, (S)-1-(cyclopentylmethyl)-N-(2-cyclopropyl-4-methyl-5-oxo-5,6,7,8-tetrahydro-4H-pyrazolo[1,5-a][1,3]diazepin-6-yl)-1H-1,2,4-triazole-3-carboxamide] | 24.5 nM |

same assay, conditions: human RIP1 kinase domain (2-375), Transcreener ADP assay, 50 uM ATP, 2 hours incubation; read-out: RIP1 Ki

| Structure (SMILES) | Ki |
| --- | --- |
| CC(c1cnc2[nH]nc(C(=O)N[C@H]3COc4ccccc4N(C)C3=O)c2c1)C(F)(F)F (stereo partly drawn) [Example 296, N—((S)-5-methyl-4-oxo-2,3,4,5-tetrahydrobenzo[b][1,4]oxazepin-3-yl)-5-(1,1,1-trifluoropropan-2-yl)-1H-pyrazolo[3,4-b]pyridine-3-carboxamide] | 61.2 nM |
| Cc1cc2n(n1)CCC(NC(=O)c1ncn(CC3CC(F)(F)C3)n1)C(=O)N2C (stereo not drawn) [Example 248, 1-((3,3-difluorocyclobutyl)methyl)-N-(2,4-dimethyl-5-oxo-5,6,7,8-tetrahydro-4H-pyrazolo[1,5-a][1,3]diazepin-6-yl)-1H-1,2,4-triazole-3-carboxamide] | 1100 nM |

same assay, conditions: tight-binding apparent inhibition constant; human RIP1 kinase domain (2-375) 50 nM, 50 uM ATP, 2 hours; read-out: Ki

| Structure (SMILES) | Ki |
| --- | --- |
| Cc1cc(F)c2c(c1)OC[C@H](NC(=O)c1nc3n(n1)[C@H](C(C)C)CC3)C(=O)N2 (single isomer, unassigned) [Example 352] | 96.9 nM |
| CC[C@@H]1CCc2nc(C(=O)N[C@H]3COc4ccccc4N(C)C3=O)nn21 (single isomer, unassigned) [Example 359] | 303 nM |
| O=C(N[C@H]1COc2cc(F)cc(F)c2NC1=O)c1nc2n(n1)CCO[C@@H]2c1ccccc1 [Example 641, (8R)-8-phenyl-N-[(3S)-6,8-difluoro-4-oxo-3,5-dihydro-2H-1,5-benzoxazepin-3-yl]-6,8-dihydro-5H-[1,2,4]triazolo[5,1-c][1,4]oxazine-2-carboxamide] | 470 nM |
| CN1C(=O)[C@@H](NC(=O)c2nc3n(n2)CCO[C@@H]3c2ccccc2)COc2ccccc21 [Example 517, (8R)-8-phenyl-N-[(3S)-5-methyl-4-oxo-2,3-dihydro-1,5-benzoxazepin-3-yl]-6,8-dihydro-5H-[1,2,4]triazolo[5,1-c][1,4]oxazine-2-carboxamide] | 660 nM |
| Cc1cc2n(n1)CC[C@H](NC(=O)c1ncn(C[C@H]3C[C@@H](C(F)(F)F)C3)n1)C(=O)N2C [Example 492] | 180 nM |
| Cc1cc2n(n1)CC[C@H](NC(=O)c1ncc3c(n1)C1(CCOC1)OC3)C(=O)N2C (stereo partly drawn) [Example 551, N-[(6S)-2,4-dimethyl-5-oxo-7,8-dihydro-6H-pyrazolo[1,5-a][1,3]diazepin-6-yl]spiro[5H-furo[3,4-d]pyrimidine-7,3′-tetrahydrofuran]-2-carboxamide] | 960 nM |
| CN1C(=O)[C@@H](NC(=O)c2ncn(Cc3ccccc3)n2)CCn2nc(C3(F)CC3)cc21 [Example 570, 1-benzyl-N-(6S)-2-(1-fluorocyclopropyl)-4-methyl-5-oxo-7,8-dihydro-6H-pyrazolo[1,5-a][1,3]diazepin-6-yl-1,2,4-triazole-3-carboxamide] | 24 nM |
| CN1C(=O)[C@@H](NC(=O)c2ncc3c(n2)[C@@](C)(CC(F)(F)F)OC3)COc2ccccc21 (racemic) [Example 691, rac-(7R)-7-methyl-N-[rac-(3S)-5-methyl-4-oxo-2,3-dihydro-1,5-benzoxazepin-3-yl]-7-(2,2,2-trifluoroethyl)-5H-furo[3,4-d]pyrimidine-2-carboxamide] | 22.8 nM |
| O=C(N[C@H]1COc2cc(F)cc(F)c2NC1=O)c1nc2n(n1)[C@@H](c1ccccc1)CC2 [Example 621, (5R)-5-phenyl-N-[(3S)-6,8-difluoro-4-oxo-3,5-dihydro-2H-1,5-benzoxazepin-3-yl]-6,7-dihydro-5H-pyrrolo[1,2-b][1,2,4]triazole-2-carboxamide] | 3.1 nM |
